According to PubChem BioAssay (NCI):
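Five compound concentrations were applied to cells in 96-well plates for 48 hours; endpoints were derived by simple linear interpolation of the resulting dose-response curve. GI50 is the concentration that inhibits growth by half. TGI: concentration producing complete growth inhibition.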

Tests used:
Assay in all cases: DTP human tumour cell line panel, 48 h
786-0 renal = test system: 786-0 renal
ACHN renal = test system: ACHN renal
BT-549 breast = test system: BT-549 breast
MALME-3M melanoma = test system: MALME-3M melanoma
NCI-H522 lung = test system: NCI-H522 lung
NCI/ADR-RES ovarian = test system: NCI/ADR-RES ovarian
RXF 393 renal = test system: RXF 393 renal
SF-268 CNS = test system: SF-268 CNS
SK-MEL-5 melanoma = test system: SK-MEL-5 melanoma
SN12C renal = test system: SN12C renal

| Structure (SMILES) | GI50 (786-0 renal) | TGI (786-0 renal) | GI50 (ACHN renal) | TGI (ACHN renal) | GI50 (BT-549 breast) | TGI (BT-549 breast) | GI50 (MALME-3M melanoma) | TGI (MALME-3M melanoma) | GI50 (NCI-H522 lung) | TGI (NCI-H522 lung) | GI50 (NCI/ADR-RES ovarian) | TGI (NCI/ADR-RES ovarian) | GI50 (RXF 393 renal) | TGI (RXF 393 renal) | GI50 (SF-268 CNS) | TGI (SF-268 CNS) | GI50 (SK-MEL-5 melanoma) | TGI (SK-MEL-5 melanoma) | GI50 (SN12C renal) | TGI (SN12C renal) |
| --- | --- | --- | --- | --- | --- | --- | --- | --- | --- | --- | --- | --- | --- | --- | --- | --- | --- | --- | --- | --- |
| CCN1C(=O)N(CC)C2C1NN=c1s/c(=C3\C(=O)N(CC(C)(C)C)c4ccccc43)c(=O)n12 (stereo not given) | 5.65 µM | 27.8 µM | 4.04 µM | 18.1 µM | 2.62 µM | 9.65 µM | 10 µM | 25.5 µM | 3.19 µM | 18.5 µM | 2.61 µM | 13.3 µM | 1.83 µM | 12.8 µM | 4.8 µM | 32.1 µM | 2.11 µM | 5.21 µM | 2.21 µM | 11.3 µM |
| CSc1ccc2c(c1)C(=O)c1c-2n(CCCBr)c(=O)c2cc([N+](=O)[O-])ccc12 | 2.45 µM | 10.5 µM | 1.61 µM | 8.4 µM | 80.7 µM | > 100 µM | 11.6 µM | > 100 µM | 5.32 µM | 97.4 µM | 5.5 µM | > 100 µM | > 100 µM | > 100 µM | 7.42 µM | > 100 µM | 3 µM | 25.8 µM | 0.893 µM | 6.95 µM |
| CCCCCOc1ccc(/C=N/Nc2cc(C)nc3ccc(Br)cc23)cc1 | 1.8 µM | 3.43 µM | 1.77 µM | 3.17 µM | 1.77 µM | 3.43 µM | 1.88 µM | 3.46 µM | 2.06 µM | 4.71 µM | 1.83 µM | 4.19 µM | 1.67 µM | 3.19 µM | 1.97 µM | 3.73 µM | 1.74 µM | 3.16 µM | 1.72 µM | 3.27 µM |
| CCOC(=O)/C=C(/C)Sc1cc(O)c2ccccc2c1O | 15.2 µM | 28.6 µM | 2.78 µM | 9.82 µM | 2.93 µM | 10.5 µM | 1.93 µM | 3.71 µM | 1.73 µM | 4.66 µM | 3.99 µM | 25.2 µM | 2.28 µM | 6.34 µM | 4.24 µM | 14.6 µM | 1.59 µM | 2.99 µM | 2.48 µM | 7.29 µM |
| Cc1cc(C)c(NC(=O)c2sc3nc4c(cc3c2N)CN(Cc2ccccc2)CC4)c(C)c1 | 3.48 µM | > 100 µM | 6.31 µM | > 100 µM | 4.05 µM | 57.6 µM | 3.44 µM | 42 µM | 1.6 µM | 6.82 µM | 1.64 µM | 6.24 µM | 2.45 µM | 18.5 µM | 6.93 µM | 64.8 µM | 1.47 µM | 11.5 µM | 5.6 µM | > 100 µM |
| Cc1nc(-[n+]2nc(-c3ccncc3)nn2-c2ccccc2)sc1C |  | > 100 µM |  | > 100 µM |  | 41 µM |  | > 100 µM |  | 76.5 µM |  | > 100 µM |  | 45.9 µM |  | > 100 µM |  | > 100 µM |  | > 100 µM |
| O=C1NC(=NCCc2cccc(Cl)c2)S/C1=C\c1ccc2ncccc2c1 | > 25 µM | > 25 µM | > 25 µM | > 25 µM | > 25 µM | > 25 µM | > 25 µM | > 25 µM | > 25 µM | > 25 µM | > 25 µM | > 25 µM | > 25 µM | > 25 µM | > 25 µM | > 25 µM | > 25 µM | > 25 µM | > 25 µM | > 25 µM |
